Experimental data published in patent publication US12291502B2, “Topoisomerase II-alpha inhibitors and methods of treating cancer using the same” (The Regents of the University of Colorado, priority 2019, dated 2025).
Entries after “also recorded” stand apart in the source; their conditions may differ. Like-named read-outs stand apart in the source and are kept apart here.

Tests used:
[1] = system: TOP2A-dependent TCF-transcription in SW620-TOP tumor organoids; assay: TCF (TOPflash) reporter assay in 3D tumor organoids; type: cell-based; conditions: for IC50: 72 hours
Experimental: TCF reporter assay in 3D Tumor organoid. Stable engineered cells containing pCDH-TOPflash-luc-EF1-puro were used to generate tumor organoid arrayed in 96-well plates and treated for 72 hours. One-Glo™ luciferase reagent and CellTiter-Glo™ 3D cell viability reagent (Promega) were used to determine the TCF reporter activity in viable cells.
After characterizing 3 and 7 as TOP2A ATP-competitive inhibitors, these compounds were next tested for their ability to inhibit TOP2A-dependent TCF-transcription using the well characterized TOPflash (TOP) luminescent reporter, which was used to generate a stably transduced SW620-TOP reporter cells as described previously (Zhou, et al., Oncogene 2016, 35:4990-9). These cells were used to generate single 3D tumor organoids (700 μm in diameter) uniformly arrayed in 96-well plates, which mimic aspects of tumor function observed in vivo. […] Like neo, the mode of action of compounds 3 and 7 also results in significant antitumor activity (FIGS. 3E-3H). […] In other words, the activity of 3 and 7 is long lasting, suppressing CSC stemness and related tumorigenicity. EMT is a major driving force promoting tumor cell invasion and metastasis. […] Tumor organoids were dissociated, and viable cells were washed and plated into the top chamber of 96-well invasion plate coated with Matrigel and incubated for an additional 72 hours without adding any additional compound. […] Taken together, the biological activity of 3 and 7 is consistent with the activity of neo, inhibiting TOP2A-dependent TCF-transcription that in turn reverses EMT while inhibiting the associated tumorigenic properties of mCRC.
A similar trend in IC50 values was observed compared to TOP2A enzyme studies, further supporting our proposed mechanism of action as inhibition of TOP2A-dependent TCF-transcription.
3D Tumor organoid TOPflash reporter assay. […] 35(38): p. 4990-9.] were used to generate tumor organoids arrayed in 96-well plates and treated for 72 h with TOP2A inhibitors. One-Glo™ luciferase reagent and CellTiter-Glo™ 3D cell viability reagent (Promega, WI) were used to determine the TCF reporter activity in viable cells. Briefly, reagents were added to the spheroids at 1:1 ratio (v:v) and the plates were placed on an orbital shaker (300 rpm) for 10 min at room temperature before the luminescence was read with Envision plate reader (PerkinElmer, MA). TCF reporter activity was normalized to organoid viability and inhibitors treated conditions were normalized to DMSO treated controls.

[2] = system: vimentin promoter activity (VimPro-GFP) in SW620 cells; assay: VimPro-GFP EMT reporter assay
Experimental: VimPro-GFP and EcadPro-mCherry reporter assays. VimPiro-GFP: SW620 cells were first transduced with NucLight Red virus (Essen BioSciences) and selected with Zeocin at 200 μg/mL, and then transduced with pCDH-VimPro-GFP-EF1-puro virus and selected with puromycin at 4 μg/mL. The dual fluorescently labeled cells were plated and treated in 3D tumor organoid as described. Tumor organoid images were recorded every 2 hours over a 72 hours period using an incucyte ZOOM content imaging system (Essen BioSciences) or PerkinElmer Phenix imager (PerkinElmer).
Analogs were also assessed for their ability to modulate or reverse EMT using VimPro-GFP and EcadPro-RFP SW620 reporter cells cultured as tumor organoids, determining EC50 dose responses over 72 hours (Table 2).
VimPro-GFP and EcadPro-RFP reporter assays. Stable VimPro-GFP or EcadPro-RFP SW620 reporter cells were generated using pCDH-VimPro-GFP-EF1-puro virus or pCDH-EcadPro-mCherry-EF1-puro virus as previously reported. […] Transduced cells were selected with puromycin at 2 μg/mL. The stable fluorescent labeled reporter cells were then used to generate tumor organoids as described. Tumor organoids were then treated with TOP2A inhibitors at 10 μM for an additional 72 h. Following treatment, tumor organoids were stained with 16 μM of Hoechst 33342 for 1 h, which functions as a nuclear stain for imaging segmentation. Images were taken with a 5× air objective. Z stacks were set at 20 μm apart for a total of 7 layers. Imaging analysis was performed using an Opera Phenix high content screening (HCS) system and Harmony high-content imaging and analysis software interface (PerkinElmer, MA). Nuclei were identified with Hoechst 33342 stain within each layer, and cells were found with either GFP or mCherry channel. The intensities of each fluorescence channel within the cells were calculated and thresholds were set based on the background intensities. Percentages of GFP or mCherry positive cells were calculated and normalized to the DMSO treated group.
VimPro-GFP and EcadPro-RFP reporter assays. Stable VimPro-GFP or EcadPro-RFP SW620 reporter cells were generated using pCDH-VimPro-GFP-EF1-puro virus or pCDH-EcadPro-mCherry-EF1-puro virus as previously reported. […] Transduced cells were selected with puromycin at 2 μg/mL. The stable fluorescent labeled reporter cells were then used to generate tumor organoids as described. Tumor organoids were then treated with TOP2A inhibitors at 10 μM for an additional 72 h. Following treatment, tumor organoids were stained with 16 μM of Hoechst 33342 for 1 h, which functions as a nuclear stain for imaging segmentation. Images were taken with a 5× air objective.

hTopoIIα (TOP2A) = molecular target: T1, hTopoIIα (TOP2A) (Homo sapiens, UniProt P11388); assay: TOP2A ATPase / DNA relaxation assay, Michaelis-Menten mode of inhibition (malachite green); type: biochemical; conditions: Vmax unchanged, KM shifted
T1 construct: purchased Topogen, CO
Experimental: TOP2A inhibition (Michaelis-Menten). TOP2A Mode of Inhibition was tested with a relaxation assay and the inorganic phosphate (pi) generated was measured with phosphate reagent (Abcam) in black polystyrene 384-well assay plates (Thermo Fisher Scientific). ATP-dependent DNA relaxation assays in 15 μl contained 2 U hTopolla (Topogen), 85 μg/mil (10 nM) supercoiled plasmid (a gift from AstraZeneca), and various concentrations of ATP (between […]) and analog 3 and 7 (between 0 and 20 μM) in 50 mM Tris-HCl (pH 7.5), 150 mM KCl, 5% (v/v) glycerol, 10 mM MgCl2, 1 mM dithiothreitol, 0.002% (w/v) Brij-35, and 200 nM bovine serum albumin (BSA). […] An addition of 70 μL of ddH2O and 15 μL of phosphate reagent were added to each well and the plates were incubated in dark at room temp for 30 min before OD600 was read with a BioTek plate reader. […]
TOP2A ATPase Assay. The mode of inhibition of TOP2A analogs were tested with a DNA relaxation assay and the inorganic phosphate (pi) generated was measured with malachite green phosphate reagent (Abcam, MA) in black polystyrene 384-well assay plates (Thermo Fisher Scientific, MA). […] An addition of 70 μL of ddH2O and 15 μL of phosphate reagent were added to each well and the plates were incubated in dark at room temp for 30 min before OD600 was read with a BioTek plate reader. […]

[3] = Homo sapiens, SW-620, Table 2, SW620 tumor organoids, read-out: % TCP inhibition IC50
[4] = SW620-TOP tumor organoids, read-out: IC50 inhibition of TCF-transcription
[5] = Homo sapiens, SW-620, 72 h, read-out: % Vimentin downregulation EC50 (μM)
[6] = read-out: % Vimentin downregulation EC50, Table 2, SW620 tumor organoids, 72 hours

T1 sequence (P11388 whole entry): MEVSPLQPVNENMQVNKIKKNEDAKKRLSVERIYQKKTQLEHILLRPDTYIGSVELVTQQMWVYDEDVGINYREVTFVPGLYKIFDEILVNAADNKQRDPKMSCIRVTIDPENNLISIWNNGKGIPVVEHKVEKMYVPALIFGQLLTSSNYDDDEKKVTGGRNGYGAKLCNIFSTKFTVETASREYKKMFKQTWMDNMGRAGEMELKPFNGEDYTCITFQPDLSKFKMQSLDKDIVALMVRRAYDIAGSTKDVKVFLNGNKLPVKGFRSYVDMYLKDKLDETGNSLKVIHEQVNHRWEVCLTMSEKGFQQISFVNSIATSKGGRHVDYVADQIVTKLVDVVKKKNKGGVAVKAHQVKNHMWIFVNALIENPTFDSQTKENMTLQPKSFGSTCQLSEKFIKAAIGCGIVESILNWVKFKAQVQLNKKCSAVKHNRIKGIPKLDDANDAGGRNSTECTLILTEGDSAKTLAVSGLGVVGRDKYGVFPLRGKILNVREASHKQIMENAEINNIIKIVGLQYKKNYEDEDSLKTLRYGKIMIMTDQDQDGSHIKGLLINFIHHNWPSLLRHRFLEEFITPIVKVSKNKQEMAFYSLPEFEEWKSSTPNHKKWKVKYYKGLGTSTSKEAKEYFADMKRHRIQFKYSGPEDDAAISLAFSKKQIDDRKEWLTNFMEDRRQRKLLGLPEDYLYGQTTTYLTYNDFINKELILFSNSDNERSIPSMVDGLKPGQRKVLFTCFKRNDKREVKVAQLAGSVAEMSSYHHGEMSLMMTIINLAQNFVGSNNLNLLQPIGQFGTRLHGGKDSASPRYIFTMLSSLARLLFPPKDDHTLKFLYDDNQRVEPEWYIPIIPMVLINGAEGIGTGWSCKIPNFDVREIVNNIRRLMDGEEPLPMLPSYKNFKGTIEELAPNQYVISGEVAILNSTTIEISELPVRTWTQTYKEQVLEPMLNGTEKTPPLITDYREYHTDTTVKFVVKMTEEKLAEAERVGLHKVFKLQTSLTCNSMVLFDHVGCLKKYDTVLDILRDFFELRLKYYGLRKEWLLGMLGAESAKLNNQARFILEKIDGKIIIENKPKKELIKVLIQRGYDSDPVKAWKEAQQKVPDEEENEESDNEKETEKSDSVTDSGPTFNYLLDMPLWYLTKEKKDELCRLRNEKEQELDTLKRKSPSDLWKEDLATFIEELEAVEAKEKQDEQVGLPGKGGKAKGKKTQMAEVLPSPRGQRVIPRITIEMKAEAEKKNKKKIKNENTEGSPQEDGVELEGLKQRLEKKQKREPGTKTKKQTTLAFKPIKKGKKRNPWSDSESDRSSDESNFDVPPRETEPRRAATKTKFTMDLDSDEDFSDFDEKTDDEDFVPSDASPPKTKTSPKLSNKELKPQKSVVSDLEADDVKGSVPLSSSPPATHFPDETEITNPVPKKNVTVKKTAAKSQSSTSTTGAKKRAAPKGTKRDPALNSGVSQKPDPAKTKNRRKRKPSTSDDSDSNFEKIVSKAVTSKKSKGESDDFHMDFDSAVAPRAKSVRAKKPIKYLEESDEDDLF

Compound	IC50 [1, 3] [µM]	IC50 [1, 4] [µM]	EC50 [2, 5] [µM]	EC50 [2, 6] [µM]	mode of TOP2A inhibition (Michaelis-Menten kinetics of ATP hydrolysis) (hTopoIIα (TOP2A))	other results
O=C(CCN1CCOCC1)Nc1ccc2c(-c3cc(F)ccc3O)ccnc2c1O [Analog 42]	3.2	3.2	13.2			
CC(C)(C)C(=O)Nc1ccc2c(-c3ccccc3)ccnc2c1O [Analog 39]				4.7		IC50 ([1]; Table 2, SW620 tumor organoids, read-out: % TCP inhibition IC50): 4.7 µM
CC(=O)Nc1ccc2c(-c3cc(F)ccc3O)ccnc2c1O [Analog 7]	6		10.8		ATP-competitive mode of inhibition	inhibition of TCF-transcription (TOP-activity), in words ([1]; SW620 tumor organoids, TOPflash reporter): significantly inhibit TOP-activity; also recorded: significantly inhibit TOP2A-dependent TCF-transcription; vimentin downregulation (VimPro-GFP), in words ([2]; SW620 tumor organoids): dose-dependent downregulation of vimentin
CC(=O)Nc1ccc2c(-c3ccoc3)ccnc2c1O [Analog 56]	7		25.7			
CC(=O)Nc1ccc(-c2ccnc3c(O)c(NC(C)=O)ccc23)cc1 [Analog 35]		2		9.5		
Cn1ccc2c(c1=O)C(=O)c1nccc3c1C2NC1=CCC=CC13 (stereo not drawn) [neo, neoamphimedine, reference compound]					ATP-competitive mode of inhibition	
